Experimental data reported in PubChem BioAssay AID330 (DTP/NCI, 2004).
Values joined by “and” are separate entries in the source; they are usually repeats but may differ in a detail not shown here. Equal values may be shown once. Toxic doses and inconclusive results are not listed.

Tested on: P388 leukemia ip, CD2F1 mice, survival T/C
Experiment: NCI In Vivo Anticancer Drug Screen. Data for tumor model P388 Leukemia (intraperitoneal) in CD2F1 (CDF1) mice
Conditions: endpoint: median survival time, higher = longer survival
Procedure, shortened: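 Mice carrying the transplanted tumor received test compound or vehicle. Survival was recorded in each group, and the value is the treated-group measurement divided by that of the vehicle-treated control group.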

[1] = dose: 50.0 mg/kg/injection, schedule: Q01DX005 (ip), vehicle: saline
[2] = dose: 100.0 mg/kg/injection, schedule: Q01DX005 (ip), vehicle: saline
[3] = dose: 200.0 mg/kg/injection, schedule: Q01DX005 (ip), vehicle: saline
[4] = dose: 60.0 mg/kg/injection, schedule: Q01DX005 (ip), vehicle: Klucel (hydroxypropylcellulose) (HPC)
[5] = dose: 120.0 mg/kg/injection, schedule: Q01DX005 (ip), vehicle: Klucel (hydroxypropylcellulose) (HPC)
[6] = dose: 240.0 mg/kg/injection, schedule: Q01DX005 (ip), vehicle: Klucel (hydroxypropylcellulose) (HPC)
[7] = dose: 6.25 mg/kg/injection, schedule: Q01DX009 (ip), vehicle: water
[8] = dose: 12.5 mg/kg/injection, schedule: Q01DX009 (ip), vehicle: water
[9] = dose: 25.0 mg/kg/injection, schedule: Q01DX009 (ip), vehicle: water
[10] = dose: 60.0 mg/kg/injection, schedule: Q01DX005 (ip), vehicle: saline with Tween-80
[11] = dose: 120.0 mg/kg/injection, schedule: Q01DX005 (ip), vehicle: saline with Tween-80
[12] = dose: 240.0 mg/kg/injection, schedule: Q01DX005 (ip), vehicle: saline with Tween-80
[13] = dose: 50.0 mg/kg/injection, schedule: Q01DX009 (ip), vehicle: Klucel (hydroxypropylcellulose) (HPC)
[14] = dose: 100.0 mg/kg/injection, schedule: Q01DX009 (ip), vehicle: Klucel (hydroxypropylcellulose) (HPC)

CCOC(=O)C(=CNCc1ccccc1)C(=O)OCC
T/C (dose: 15.0 mg/kg/injection, schedule: Q01DX009 (ip), vehicle: saline with Tween-80): 106 % of control
T/C (dose: 30.0 mg/kg/injection, schedule: Q01DX009 (ip), vehicle: saline with Tween-80): 104 % of control
T/C (dose: 60.0 mg/kg/injection, schedule: Q01DX009 (ip), vehicle: saline with Tween-80): 95 % of control

CC(O)C(=O)NCO (centres undefined)
T/C [1]: 104 % of control
T/C [2]: 100 % of control
T/C [3]: 100 % of control

CC(=O)OC1C2C=CC1C=C2 (centres undefined)
T/C (dose: 50.0 mg/kg/injection, schedule: Q01DX009 (ip), vehicle: saline with Tween-80): 104 % of control
T/C (dose: 100.0 mg/kg/injection, schedule: Q01DX009 (ip), vehicle: saline with Tween-80): 93 % of control
T/C (dose: 200.0 mg/kg/injection, schedule: Q01DX009 (ip), vehicle: saline with Tween-80): 100 % of control

COc1ccc2c(c1)s/c(=N/N)n2CCCS(=O)(=O)O
T/C (dose: 50.0 mg/kg/injection, schedule: Q01DX009 (ip), vehicle: saline): 109 % of control
T/C (dose: 100.0 mg/kg/injection, schedule: Q01DX009 (ip), vehicle: saline): 103 % of control
T/C (dose: 200.0 mg/kg/injection, schedule: Q01DX009 (ip), vehicle: saline): 110 % of control

O=C1CCC(C(=O)N/N=C\C=N/NC(=O)C2CCC(=O)N2)N1 (centres undefined)
T/C (dose: 5.0 mg/kg/injection, schedule: Q01DX009 (ip), vehicle: saline with Tween-80): 101 % of control
T/C (dose: 10.0 mg/kg/injection, schedule: Q01DX009 (ip), vehicle: saline with Tween-80): 103 % of control
T/C (dose: 20.0 mg/kg/injection, schedule: Q01DX009 (ip), vehicle: saline with Tween-80): 103 % of control

NCCSCCO
T/C [1]: 98 % of control
T/C [2]: 100 % of control
T/C [3]: 99 % of control

Cc1cc(-n2nnc3ccccc3c2=O)on1
T/C [4]: 114 % of control
T/C [5]: 101 % of control
T/C [6]: 119 % of control

CN(C)C(=S)S(=O)(=O)CCCCCCS(=O)(=O)C(=S)N(C)C
T/C (dose: 50.0 mg/kg/injection, schedule: Q04DX002 (ip), vehicle: Klucel (hydroxypropylcellulose) (HPC)): 102 % of control and 103 % of control
T/C (dose: 100.0 mg/kg/injection, schedule: Q04DX002 (ip), vehicle: Klucel (hydroxypropylcellulose) (HPC)): 100 % of control and 110 % of control and 114 % of control
T/C (dose: 200.0 mg/kg/injection, schedule: Q04DX002 (ip), vehicle: Klucel (hydroxypropylcellulose) (HPC)): 107 % of control and 111 % of control and 123 % of control
T/C (dose: 300.0 mg/kg/injection, schedule: Q04DX002 (ip), vehicle: Klucel (hydroxypropylcellulose) (HPC)): 107 % of control and 109 % of control

O=P1(Oc2ccccc2)NC2CCCCC2N1 (centres undefined)
T/C (dose: 12.5 mg/kg/injection, schedule: Q01DX005 (ip), vehicle: Klucel + Tween-80): 95 % of control
T/C (dose: 25.0 mg/kg/injection, schedule: Q01DX005 (ip), vehicle: Klucel + Tween-80): 97 % of control
T/C (dose: 50.0 mg/kg/injection, schedule: Q01DX005 (ip), vehicle: Klucel + Tween-80): 95 % of control
T/C (dose: 100.0 mg/kg/injection, schedule: Q01DX001 (ip), vehicle: Klucel (hydroxypropylcellulose) (HPC)): 94 % of control

COc1cccc2c1C(=O)c1c(O)c3c(c(O)c1C2=O)C[C@@](O)(C(C)O)C[C@@H]3OC1CC(NC(=O)C(F)(F)F)C(O)C(C)O1 (some centres undefined)
T/C (dose: 1.56 mg/kg/injection, schedule: Q01DX009 (ip), vehicle: water): 118 % of control
T/C [7]: 150 % of control
T/C [8]: 156 % of control and 169 % of control
T/C [9]: 181 % of control and 189 % of control

O=NNc1cnc(Br)cn1
T/C (dose: 3.13 mg/kg/injection, schedule: Q01DX009 (ip), vehicle: water): 97 % of control
T/C [7]: 101 % of control
T/C [8]: 105 % of control and 108 % of control
T/C [9]: 108 % of control and 118 % of control
T/C (dose: 100.0 mg/kg/injection, schedule: Q01DX009 (ip), vehicle: water): 167 % of control

CCOC(=O)CC(SCP(=O)(OCC)OCC)C(=O)OCC (centres undefined)
T/C [10]: 101 % of control
T/C [11]: 95 % of control
T/C [12]: 93 % of control

O=C(NC[N+]12CCO[B-]1(c1cccc(Cl)c1)OCC2)c1ccccc1O (centres undefined)
T/C (dose: 50.0 mg/kg/injection, schedule: Q01DX005 (ip), vehicle: Klucel (hydroxypropylcellulose) (HPC)): 104 % of control
T/C (dose: 100.0 mg/kg/injection, schedule: Q01DX005 (ip), vehicle: Klucel (hydroxypropylcellulose) (HPC)): 104 % of control
T/C (dose: 200.0 mg/kg/injection, schedule: Q01DX005 (ip), vehicle: Klucel (hydroxypropylcellulose) (HPC)): 96 % of control

COC(=O)c1nnn(-c2cccc(Cl)c2)c1C(=O)c1ccc(Cl)c(Cl)c1
T/C [10]: 100 % of control
T/C [11]: 87 % of control
T/C [12]: 88 % of control

OC(C1=NNC(C(O)c2ccccc2)=NN1)c1ccccc1 (centres undefined)
T/C [10]: 92 % of control
T/C [11]: 100 % of control
T/C [12]: 102 % of control

O=CNC(Cc1cnc[nH]1)C(=O)O (centres undefined)
T/C (dose: 50.0 mg/kg/injection, schedule: Q01DX005 (ip), vehicle: saline with Tween-80): 100 % of control
T/C (dose: 100.0 mg/kg/injection, schedule: Q01DX005 (ip), vehicle: saline with Tween-80): 98 % of control
T/C (dose: 200.0 mg/kg/injection, schedule: Q01DX005 (ip), vehicle: saline with Tween-80): 97 % of control

C=C(C)C1CC2(C)C(C)CC(O)CC2C(OC(=O)C=C(C)C)C1O (centres undefined)
T/C (dose: 25.0 mg/kg/injection, schedule: Q01DX009 (ip), vehicle: Klucel (hydroxypropylcellulose) (HPC)): 93 % of control
T/C [13]: 96 % of control
T/C [14]: 97 % of control

c1cc(OCCOc2cccc3ocnc23)c2ncoc2c1
T/C [10]: 98 % of control and 92 % of control
T/C [11]: 99 % of control
T/C [12]: 86 % of control and 89 % of control

CCc1ccc(/C=C/C(=O)C(C)CN(C)C)cc1 (centres undefined)
T/C (dose: 60.0 mg/kg/injection, schedule: Q01DX005 (ip), vehicle: saline): 105 % of control
T/C (dose: 120.0 mg/kg/injection, schedule: Q01DX005 (ip), vehicle: saline): 118 % of control

COC(OC)(OC)OC
T/C [1]: 104 % of control
T/C [2]: 108 % of control
T/C [3]: 109 % of control

Cc1onc(-c2c(Cl)cccc2Cl)c1C(=O)Nc1ccc(Cl)c(Cl)c1Cl
T/C [4]: 96 % of control
T/C [5]: 93 % of control
T/C [6]: 92 % of control

COc1cccc2c1C(=O)c1c(O)c3c(c(O)c1C2=O)CC(O)(C(=O)CO)CC3OC1CC(N)C(I)C(C)O1 (centres undefined)
T/C (dose: 5.0 mg/kg/injection, schedule: Q01DX001 (ip), vehicle: saline): 165 % of control and 170 % of control
T/C (dose: 7.5 mg/kg/injection, schedule: Q01DX001 (ip), vehicle: saline): 167 % of control and 191 % of control
T/C (dose: 11.2 mg/kg/injection, schedule: Q01DX001 (ip), vehicle: saline): 208 % of control and 212 % of control
T/C (dose: 16.8 mg/kg/injection, schedule: Q01DX001 (ip), vehicle: saline): 220 % of control
T/C (dose: 25.2 mg/kg/injection, schedule: Q01DX001 (ip), vehicle: saline): 234 % of control

CC1(C)CC(=O)C(CC(=O)c2ccccc2)=C(NN=C(N)N)C1
T/C [13]: 101 % of control
T/C [14]: 100 % of control
T/C (dose: 200.0 mg/kg/injection, schedule: Q01DX009 (ip), vehicle: Klucel (hydroxypropylcellulose) (HPC)): 91 % of control

CN1CCC2CC(=O)NC1(C)C2(C)C (centres undefined)
T/C (dose: 100.0 mg/kg/injection, schedule: Q01DX001 (ip), vehicle: saline): 104 % of control
T/C (dose: 200.0 mg/kg/injection, schedule: Q01DX001 (ip), vehicle: saline): 106 % of control
T/C (dose: 400.0 mg/kg/injection, schedule: Q01DX001 (ip), vehicle: saline): 106 % of control

COc1cc([C@@H]2c3cc4c(cc3[C@H](O)[C@@H](CO)[C@@H]2C(=O)O)OCO4)cc(OC)c1OC
T/C [1]: 90 % of control
T/C [2]: 94 % of control
T/C [3]: 93 % of control

CCCCCCCC(=O)N/N=C(\CO)[C@]1(O)Cc2c(O)c3c(c(O)c2[C@@H](OC2CC(N)C(O)C(C)O2)C1)C(=O)c1c(OC)cccc1C3=O (some centres undefined)
T/C (dose: 1.25 mg/kg/injection, schedule: Q04DX003 (ip), vehicle: water): 109 % of control
T/C (dose: 2.5 mg/kg/injection, schedule: Q04DX003 (ip), vehicle: water): 109 % of control
T/C (dose: 5.0 mg/kg/injection, schedule: Q04DX003 (ip), vehicle: water): 107 % of control
T/C (dose: 10.0 mg/kg/injection, schedule: Q04DX003 (ip), vehicle: water): 119 % of control and 121 % of control
T/C (dose: 20.0 mg/kg/injection, schedule: Q04DX003 (ip), vehicle: water): 123 % of control
T/C (dose: 80.0 mg/kg/injection, schedule: Q04DX003 (ip), vehicle: water): 179 % of control

CC(=O)OC[C@]12CCC(C)=CC1O[C@@H]1C(OC(C)=O)[C@@H](O)[C@@]2(C)[C@]12CO2 (some centres undefined)
T/C (dose: 0.5 mg/kg/injection, schedule: Q01DX009 (ip), vehicle: saline): 116 % of control
T/C (dose: 4.0 mg/kg/injection, schedule: Q01DX009 (ip), vehicle: saline): 165 % of control
